This passage reports concentration results from patent EP0413544A2, “Purine derivatives, process for their preparation, pharmaceutical compositions and intermediates” (Beecham Group p.l.c., priority 1989, dated 1991).

A short description of the series: Blood concentration of E1 after oral dosing of the compounds to mice (HPLC). It is filed as in vivo. The conditions noted are these: fasted female Balb/c mice, pooled blood of 3 mice. As to the method:
Compounds were administered as single doses of 0.2mmole/kg in 0.1ml of 1% carboxymethyl cellulose by oral gavage to female Balb/c mice weighing 20g. Food was withheld from the mice for 18 hours prior to the start of the experiment. Blood was collected by cardiac puncture using heparinised syringes 15, 60 and 180 mins after dosing. Equal volumes (0.2ml) from 3 mice were pooled at each time point and 0.6ml of ice-cold ethanol was added. Following chilling at -20°C and centrifugation, 0.5ml of supernatant was dried under reduced pressure. The sample was then reconstituted with 0.5ml of 0.4M NH₄OAc (pH 6.0) and analysed by HPLC.

Molecules are shown by their SMILES. Where two headings read alike, the source gives them in different places.

As for `Nc1nc(O)c2ncn(OCCCO)c2n1` [Example E1, 9-(3-hydroxyprop-1-oxy)guanine], the concentration is, setting by setting: (Expt. 1, 15 min after single oral gavage dose of 0.2mmole/kg in 1% carboxymethyl cellulose, read-out: 9-(3-Hydroxypropoxy)guanine (E1) conc. (µM) in blood at time (min) after dosing: 15) 5.2 µM; (Expt. 1, 60 min after single oral gavage dose of 0.2mmole/kg in 1% carboxymethyl cellulose, read-out: 9-(3-Hydroxypropoxy)guanine (E1) conc. (µM) in blood at time (min) after dosing: 60) 2 µM; (Expt. 2, 15 min after single oral gavage dose of 0.2mmole/kg in 1% carboxymethyl cellulose, read-out: 9-(3-Hydroxypropoxy)guanine (E1) conc. (µM) in blood at time (min) after dosing: 15) 11 µM. Moreover, where the note is “mouse, 200 umol/kg, Expt. 2, 60 min after single oral gavage dose of 0.2mmole/kg in 1% carboxymethyl cellulose, read-out: 9-(3-Hydroxypropoxy)guanine (E1) conc. (µM) in blood at time (min) after dosing: 60”, the concentration at 1 h came to 3.3 µM.
